Reference: patent US7323490B2, “Pyrrole compounds and uses thereof” (Ambit Biosciences Corporation, priority 2003, dated 2008)

Experiments:
focal cerebral ischemia = experiment: Rat MCAO model, time schedules of administration (Example 11); assay type: in vivo; conditions: 25 hrs post, 48 h
Protocol: The compounds were tested on a standardized rodent focal cerebral ischemia model produced by permanent occlusion of the right middle cerebral artery (MCA) plus one hour of tandem carotid artery occlusion according to Chen et al. A total of 96 animals underwent MCAo using subcutaneous administration of all test articles, according to the experimental design illustrated in Table 5 below. Three compounds at one predetermined dose were compared to vehicle and assigned to three different time schedules of administration relative to the time of MCAo. […] The time schedules for administration of all treated groups were divided as follows:
A second group of eighteen animals were used to test compound A (782236) using the treatment schedule, shown (a, b & c) above via intravenous (I.V.) administration. Groups of n=5 animals per treatment time period with compound A and 3 animals per control group via tail vein.
Animal Preparation and Middle Cerebral Artery Occlusion. Male, adult, Sprague-Dawley rats (Charles River), weighing 300-400 grams, were used for the study. All animals were acclimated at least for five days before entering the study. Animals were housed in a standard animal facility and fed with commercial rodent chow ad libitum. All animals were anesthetized via intramuscular injection (4 mL/kg) of “cocktail” containing ketamine (25 mg/mL), xylazine (1.3 mg/mL) and acepromazine (0.33 mg/mL). Both carotid arteries were separated with great caution to minimize the vagal nerve stimulation. The right proximal MCA trunk was exposed through a subtemporal craniectomy without transecting the facial nerve. […] Immediately following MCA occlusion, both of the common carotid arteries were occluded for 1 hour using surgical aneurysm micro-clips (ROBOZ INC). Animals were put into temperature regulated recovery chamber for 1 hour before the clips were removed from the common carotid arteries. Body temperature was maintained at 37±0.5° C. during the surgery using a heating blanket connected to a temperature controller.
Experimental Groups and Compound Administration. A total of 96 animals underwent MCAo using subcutaneous administration of all test articles, according to the experimental design illustrated in Table 5 below. Three compounds at one predetermined dose were compared to vehicle and assigned to three different time schedules of administration relative to the time of MCAo. […] The time schedules for administration of all treated groups were divided as follows:
A second group of eighteen animals were used to test compound A (782236) using the treatment schedule, shown (a, b & c) above via I.V. administration. Groups of n=5 animals per treatment time period with compound A and 3 animals per control group via tail vein.
Infarct Measurement. Forty-eight hours following MCAo, animals were euthanized with inhalation of CO2. Brains were removed and chilled in ice saline for 10 min. The brains were put in a metal rodent brain slicer. Each rat brain was cut coronally into 7 sections, with each section being 2 mm thick. The brain sections were immersed in 2% TTC solution for 30 min at 37° C. The areas of cerebral infarcts were determined on seven slices, using a computer-interfaced imaging system, Image-Pro® Plus, Version 4.4 for Windows (Media Cybernetics, MD). Infarct areas were then summed among slices and multiplied by slice thickness to give the total infarct volume.
Statistics. All data are expressed as mean±SEM. In Section A, infarct volume was analyzed using Student t Test. A p value of ≦0.05 was considered a statistically significant difference. All statistical analyses were performed with the software package JMP version 4.0 (SAS Institute Inc., Cary, N.C.).

[1] = system: focal cerebral infarcts (MCAo); experiment: Forelimb placing test, Tamura MCAo model; assay type: in vivo, rat; conditions: AVG, 0=normal, 10=maximally impaired
From the text: (§1) Surgical Preparation. Middle Cerebral Artery Occlusion (MCAo), Tamura Model. Focal cerebral infarcts were made by permanent occlusion of the proximal right middle cerebral artery using a modification of the method of Tamura et al. […] The temporalis muscle was bisected and reflected through an incision made midway between the eye and the eardrum canal. The proximal MCA was exposed through a subtemporal craniectomy without removing the zygomatic arch and without transecting the facial nerve. […] Animals were euthanatized at various time periods after MCA occlusion and the brains are removed for histological analysis. Behavioral Analysis. Two behavioral tests were performed, the limb placing and body swing test. […] Limb Placing. The limb placing tests were divided into both forelimb and hindlimb tests. For the forelimb-placing test, the examiner held the rat close to a tabletop and scored the rat's ability to place the forelimb on the tabletop in response to whisker, visual, tactile, or proprioceptive stimulation. Similarly, for the hindlimb placing test, the examiner assessed the rat's ability to place the hindlimb on the tabletop in response to tactile and proprioceptive stimulation. […] Typically, there was a slow and steady recovery of limb placing behavior during the first month after stroke. Experimental Groups and Compound Administration. A total of 80 animals underwent MCAo using subcutaneous administration of all test articles, according to the experimental design illustrated in Table 16. […] All animals were treated with the compound(s)/vehicle(s) as a blinded random investigation. The dose and route of administration is given below in Table 16.

[2] = system: focal cerebral infarcts (MCAo); experiment: Hindlimb placing test, Tamura MCAo model; assay type: in vivo, rat; conditions: AVG, 0=normal, 6=maximally impaired
From the text: as §1

[3] = SC, schedule a: 2 hrs pre, 3 hrs post, doses per Table 5 (782236 1/0.5/0.5, others 10/5/5 mg/kg)
[4] = SC, schedule b: 1 hr post, 3 hrs post, doses per Table 5
[5] = SC, schedule c: 3 hrs post, 6 hrs post, doses per Table 5
[6] = administered six hours after MCAo
[7] = administered three hours after MCAo

| SMILES | infarction volume (focal cerebral ischemia; [3]) [mm^3] | infarction volume (focal cerebral ischemia; [4]) [mm^3] | infarction volume (focal cerebral ischemia; [5]) [mm^3] | Forelimb placing test score, D0 [1, 6] | Forelimb placing test score, D1 [1, 6] | Forelimb placing test score, D3 [1, 6] | Forelimb placing test score, D7 [1, 6] | Forelimb placing test score, D0 [1, 7] | Forelimb placing test score, D1 [1, 7] | Forelimb placing test score, D3 [1, 7] | Forelimb placing test score, D7 [1, 7] | Hindlimb placing test score, D0 [2, 6] | Hindlimb placing test score, D1 [2, 6] | Hindlimb placing test score, D3 [2, 6] | Hindlimb placing test score, D7 [2, 6] | Hindlimb placing test score, D0 [2, 7] | Hindlimb placing test score, D1 [2, 7] | Hindlimb placing test score, D3 [2, 7] | Hindlimb placing test score, D7 [2, 7] | other results |
| --- | --- | --- | --- | --- | --- | --- | --- | --- | --- | --- | --- | --- | --- | --- | --- | --- | --- | --- | --- | --- |
| CC(C)c1[nH]c(-c2ccc(F)cc2)c(-c2ccccc2)c1C(=O)Nc1ccccc1 [Compound 781430] | 78.89±28.46 | 96.51±31.62 | 121.39±22.53 | 0 | 8.9 | 8.5 | 6 | 0 | 8.9 | 7.6 | 4.3 | 0 | 5.3 | 3.5 | 3 | 0 | 4.1 | 2.8 | 2.1 | – |
| CC(C)c1c(C(=O)Nc2ccccc2)c(-c2ccccc2)c(-c2ccc(F)cc2)n1CC(O)C(O)C(O)C(O)CO (stereo not drawn) [Compound 782236] | 138.6±35.13 | 171.04±33.04 | 155.53±29.66 | 0 | 9.2 | 8.9 | 7 | 0 | 8.4 | 6.7 | 5.9 | 0 | 4.7 | 4 | 3.3 | 0 | 4.6 | 4 | 3.2 | infarction volume (focal cerebral ischemia; IV, schedule a: 2 hrs pre, 3 hrs post, 1/0.5/0.5 mg/kg): 186.8±9.2 mm^3; infarction volume (focal cerebral ischemia; IV, schedule b: 1 hr post, 3 hrs post): 122.8±17.9 mm^3; infarction volume (focal cerebral ischemia; IV, schedule c: 3 hrs post, 6 hrs post): 73.8±18.1 mm^3 |
| CC(C)c1c(C(=O)Nc2ccccc2)c(-c2ccccc2)c(-c2ccc(F)cc2)n1CC[C@@H](O)C[C@@H](O)CC(=O)O [atorvastatin, reference compound] | 80.35±30.41 | 121.52±22.58 | 127.16±25.77 | 0 | 8.8 | 8.8 | 8 | 0 | 9.2 | 7.3 | 5.6 | 0 | 5.9 | 4.9 | 3.5 | 0 | 5.6 | 4.3 | 2.8 | – |
